Structures are written as SMILES. Where “and” joins values, the source holds several entries; their conditions need not be identical. Identical values can stand only once. Records with an inconclusive call do not appear.

Seven compounds from PubChem BioAssay AID272 (DTP/NCI, 2004) can be followed below.

The subject of the assay is Lewis lung carcinoma i.m., BDF1 mice, T/C %. Description: NCI In Vivo Anticancer Drug Screen. Data for tumor model Lewis Lung Carcinoma (intramuscular) in B6D2F1 (BDF1) mice. Put shortly:
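Compound given to mice with transplantable tumours; survival or tumour size compared against the vehicle control group, reported as T divided by C.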

Where [1] appears, read: endpoint: mean tumor weight, dose: 6.25 mg/kg/injection, schedule: Q01DX011 (ip), vehicle: other, higher = larger tumour.
Where [2] appears, read: endpoint: mean tumor weight, dose: 12.5 mg/kg/injection, schedule: Q01DX011 (ip), vehicle: other, higher = larger tumour.
The mark [3] stands for this setting: endpoint: median survival time, dose: 50.0 mg/kg/injection, schedule: Q01DX011 (ip), vehicle: other, higher = longer survival.
The mark [4] stands for this setting: endpoint: median survival time, dose: 25.0 mg/kg/injection, schedule: Q01DX011 (ip), vehicle: saline, higher = longer survival.
The mark [5] stands for this setting: endpoint: median survival time, dose: 50.0 mg/kg/injection, schedule: Q01DX011 (ip), vehicle: saline, higher = longer survival.
[6] abbreviates: endpoint: median survival time, dose: 100.0 mg/kg/injection, schedule: Q01DX011 (ip), vehicle: saline, higher = longer survival.

For the compound `Clc1ncnc2nc[nH]c12`, the T/C runs as follows: (endpoint: mean tumor weight (est.), dose: 6.25 mg/kg/injection, schedule: Q01DX011 (ip), vehicle: other, higher = larger tumour) 76 % of control; (endpoint: mean tumor weight (est.), dose: 12.5 mg/kg/injection, schedule: Q01DX011 (ip), vehicle: other, higher = larger tumour) 91 % of control; (endpoint: mean tumor weight (est.), dose: 25.0 mg/kg/injection, schedule: Q01DX011 (ip), vehicle: other, higher = larger tumour) 105 % of control; (endpoint: mean tumor weight (est.), dose: 50.0 mg/kg/injection, schedule: Q01DX011 (ip), vehicle: other, higher = larger tumour) 89 % of control; (endpoint: mean tumor weight (est.), dose: 100.0 mg/kg/injection, schedule: Q01DX011 (ip), vehicle: other, higher = larger tumour) 74 % of control; (endpoint: mean tumor weight, dose: 3.13 mg/kg/injection, schedule: Q01DX011 (ip), vehicle: other, higher = larger tumour) 119 % of control. Further, the T/C is 103 % of control under setting [1]; 98 % of control under setting [2]; 50 % of control (endpoint: mean tumor weight, dose: 25.0 mg/kg/injection, schedule: Q01DX011 (ip), vehicle: other, higher = larger tumour); 73 % of control (endpoint: mean tumor weight, dose: 50.0 mg/kg/injection, schedule: Q01DX011 (ip), vehicle: other, higher = larger tumour); 96 % of control and 110 % of control (endpoint: median survival time, dose: 3.13 mg/kg/injection, schedule: Q01DX011 (ip), vehicle: other, higher = longer survival); 96 % of control (endpoint: median survival time, dose: 25.0 mg/kg/injection, schedule: Q01DX011 (ip), vehicle: other, higher = longer survival). Moreover, the T/C is 100 % of control and 116 % of control under setting [3]; 88 % of control (endpoint: median survival time, dose: 100.0 mg/kg/injection, schedule: Q01DX011 (ip), vehicle: other, higher = longer survival).
`CSc1ncnc2nc[nH]c12`: the T/C reads like this: (endpoint: mean tumor weight (est.), dose: 1.56 mg/kg/injection, schedule: Q01DX011 (ip), vehicle: saline, higher = larger tumour) 79 % of control; (endpoint: mean tumor weight (est.), dose: 3.12 mg/kg/injection, schedule: Q01DX011 (ip), vehicle: saline, higher = larger tumour) 79 % of control; (endpoint: mean tumor weight (est.), dose: 6.25 mg/kg/injection, schedule: Q01DX011 (ip), vehicle: saline, higher = larger tumour) 85 % of control; (endpoint: mean tumor weight (est.), dose: 12.5 mg/kg/injection, schedule: Q01DX011 (ip), vehicle: saline, higher = larger tumour) 78 % of control; (endpoint: mean tumor weight (est.), dose: 25.0 mg/kg/injection, schedule: Q01DX011 (ip), vehicle: saline, higher = larger tumour) 80 % of control; (endpoint: mean tumor weight (est.), dose: 50.0 mg/kg/injection, schedule: Q01DX011 (ip), vehicle: saline, higher = larger tumour) 89 % of control. Besides, the T/C is 62 % of control (endpoint: mean tumor weight (est.), dose: 100.0 mg/kg/injection, schedule: Q01DX011 (ip), vehicle: saline, higher = larger tumour); 96 % of control (endpoint: mean tumor weight, dose: 3.12 mg/kg/injection, schedule: Q01DX011 (ip), vehicle: other, higher = larger tumour); 79 % of control under setting [1]; 73 % of control under setting [2]; 104 % of control (endpoint: median survival time, dose: 1.56 mg/kg/injection, schedule: Q01DX011 (ip), vehicle: other, higher = longer survival); 92 % of control (endpoint: median survival time, dose: 1.56 mg/kg/injection, schedule: Q01DX011 (ip), vehicle: saline, higher = longer survival). Also, the T/C (endpoint: median survival time, dose: 3.12 mg/kg/injection, schedule: Q01DX011 (ip), vehicle: saline, higher = longer survival) is 92 % of control; the T/C (endpoint: median survival time, dose: 6.25 mg/kg/injection, schedule: Q01DX011 (ip), vehicle: saline, higher = longer survival) is 90 % of control; the T/C (endpoint: median survival time, dose: 12.5 mg/kg/injection, schedule: Q01DX011 (ip), vehicle: other, higher = longer survival) is 93 % of control and 100 % of control; the T/C (endpoint: median survival time, dose: 12.5 mg/kg/injection, schedule: Q01DX011 (ip), vehicle: saline, higher = longer survival) was 88 % of control; the T/C under setting [4] is 92 % of control; the T/C under setting [3] was 109 % of control. Also, the T/C by setting is: under setting [5], 90 % of control; under setting [6], 105 % of control.
`Cc1ccc(NC(=O)N(CCCl)N=O)cc1C`: the T/C is, setting by setting: (endpoint: median survival time, dose: 8.4 mg/kg/injection, schedule: Q07DX003 (ip), vehicle: Klucel (hydroxypropylcellulose) (HPC), higher = longer survival) 106 % of control; (endpoint: median survival time, dose: 14.0 mg/kg/injection, schedule: Q07DX003 (ip), vehicle: Klucel (hydroxypropylcellulose) (HPC), higher = longer survival) 91 % of control; (endpoint: median survival time, dose: 23.0 mg/kg/injection, schedule: Q07DX003 (ip), vehicle: Klucel (hydroxypropylcellulose) (HPC), higher = longer survival) 97 % of control.
On to `CCCC(=O)Nc1ncnc2c1ncn2C1OC2COP(=O)(O)OC2C1OC(=O)CCC` (stereo unspecified), for which the T/C was 107 % of control (endpoint: mean tumor weight, dose: 25.0 mg/kg/injection, schedule: Q01DX011 (ip), vehicle: saline, higher = larger tumour); 106 % of control (endpoint: mean tumor weight, dose: 50.0 mg/kg/injection, schedule: Q01DX011 (ip), vehicle: saline, higher = larger tumour); 114 % of control (endpoint: mean tumor weight, dose: 100.0 mg/kg/injection, schedule: Q01DX011 (ip), vehicle: saline, higher = larger tumour); 96 % of control (endpoint: mean tumor weight, dose: 200.0 mg/kg/injection, schedule: Q01DX011 (ip), vehicle: saline, higher = larger tumour); 90 % of control (endpoint: mean tumor weight, dose: 400.0 mg/kg/injection, schedule: Q01DX011 (ip), vehicle: saline, higher = larger tumour); 118 % of control under setting [4]. The T/C by setting is: under setting [5], 118 % of control; under setting [6], 100 % of control; (endpoint: median survival time, dose: 400.0 mg/kg/injection, schedule: Q01DX011 (ip), vehicle: saline, higher = longer survival) 104 % of control.
For `Nc1nncs1`, the T/C (endpoint: mean tumor weight, dose: 6.25 mg/kg/injection, schedule: Q01DX011 (ip), vehicle: water, higher = larger tumour) is 87 % of control; the T/C (endpoint: mean tumor weight, dose: 12.5 mg/kg/injection, schedule: Q01DX011 (ip), vehicle: water, higher = larger tumour) is 80 % of control; the T/C (endpoint: mean tumor weight, dose: 25.0 mg/kg/injection, schedule: Q01DX011 (ip), vehicle: water, higher = larger tumour) was 74 % of control; the T/C (endpoint: mean tumor weight, dose: 50.0 mg/kg/injection, schedule: Q01DX011 (ip), vehicle: water, higher = larger tumour) is 36 % of control; the T/C (endpoint: median survival time, dose: 6.25 mg/kg/injection, schedule: Q01DX011 (ip), vehicle: water, higher = longer survival) is 121 % of control; the T/C (endpoint: median survival time, dose: 25.0 mg/kg/injection, schedule: Q01DX011 (ip), vehicle: water, higher = longer survival) was 123 % of control.
Consider `CO[C@@]12[C@H](COC(N)=O)C3=C(C(=O)C(C)=C(N)C3=O)N1C[C@@H]1N[C@@H]12`, for which the T/C was 101 % of control (endpoint: mean tumor weight, dose: 0.5 mg/kg/injection, schedule: Q01DX005 (ip), vehicle: other, higher = larger tumour); 82 % of control (endpoint: mean tumor weight, dose: 1.0 mg/kg/injection, schedule: Q01DX005 (ip), vehicle: other, higher = larger tumour); 75 % of control (endpoint: mean tumor weight, dose: 2.0 mg/kg/injection, schedule: Q01DX005 (ip), vehicle: other, higher = larger tumour); 86 % of control and 112 % of control (endpoint: median survival time, dose: 0.25 mg/kg/injection, schedule: Q01DX009 (ip), vehicle: Klucel (hydroxypropylcellulose) (HPC), higher = longer survival); 112 % of control (endpoint: median survival time, dose: 0.25 mg/kg/injection, schedule: Q01DX011 (ip), vehicle: saline, higher = longer survival); 90 % of control (endpoint: median survival time, dose: 0.5 mg/kg/injection, schedule: Q01DX005 (ip), vehicle: other, higher = longer survival). In addition, the T/C is 107 % of control (endpoint: median survival time, dose: 0.5 mg/kg/injection, schedule: Q01DX005 (ip), vehicle: saline, higher = longer survival); 101 % of control and 110 % of control (endpoint: median survival time, dose: 0.5 mg/kg/injection, schedule: Q01DX009 (ip), vehicle: Klucel (hydroxypropylcellulose) (HPC), higher = longer survival); 114 % of control (endpoint: median survival time, dose: 0.5 mg/kg/injection, schedule: Q01DX011 (ip), vehicle: saline, higher = longer survival); 90 % of control (endpoint: median survival time, dose: 1.0 mg/kg/injection, schedule: Q01DX005 (ip), vehicle: saline, higher = longer survival); 97 % of control (endpoint: median survival time, dose: 1.0 mg/kg/injection, schedule: Q01DX009 (ip), vehicle: Klucel (hydroxypropylcellulose) (HPC), higher = longer survival); 86 % of control (endpoint: median survival time, dose: 1.0 mg/kg/injection, schedule: Q01DX011 (ip), vehicle: water, higher = longer survival). Moreover, the T/C is, setting by setting: (endpoint: median survival time, dose: 2.0 mg/kg/injection, schedule: Q01DX005 (ip), vehicle: other, higher = longer survival) 114 % of control; (endpoint: median tumor weight (est.), dose: 0.5 mg/kg/injection, schedule: Q01DX005 (ip), vehicle: saline, higher = larger tumour) 64 % of control; (endpoint: median tumor weight (est.), dose: 1.0 mg/kg/injection, schedule: Q01DX005 (ip), vehicle: saline, higher = larger tumour) 78 % of control.
On to `O=c1cnn(C2OC(CO)C(O)C2O)c(=O)[nH]1` (stereo unspecified), for which the T/C was 112 % of control (endpoint: median survival time, dose: 75.0 mg/kg/injection, schedule: Q01DX009 (ip), vehicle: Klucel (hydroxypropylcellulose) (HPC), higher = longer survival); 120 % of control (endpoint: median survival time, dose: 150.0 mg/kg/injection, schedule: Q01DX009 (ip), vehicle: Klucel (hydroxypropylcellulose) (HPC), higher = longer survival); 121 % of control (endpoint: median survival time, dose: 300.0 mg/kg/injection, schedule: Q01DX009 (ip), vehicle: Klucel (hydroxypropylcellulose) (HPC), higher = longer survival); 119 % of control (endpoint: median survival time, dose: 600.0 mg/kg/injection, schedule: Q01DX009 (ip), vehicle: Klucel (hydroxypropylcellulose) (HPC), higher = longer survival).
